{"source": "ChEMBL document CHEMBL1201862", "about": "“PubChem BioAssay data set” (2004)", "experiment_in_all_cases": "growth of human tumour cells (NCI), 48 h", "key": {"NCI-H226": {"test_system": "NCI-H226"}, "NCI-H460": {"test_system": "NCI-H460"}, "ACHN": {"test_system": "ACHN"}, "786-0": {"test_system": "786-0"}, "SF-539": {"test_system": "SF-539"}, "PC-3": {"test_system": "PC-3"}, "HL-60": {"test_system": "HL-60"}, "MDA-N": {"test_system": "MDA-N"}, "Hs-578T": {"test_system": "Hs-578T"}, "NCI-H23": {"test_system": "NCI-H23"}, "SN12C": {"test_system": "SN12C"}, "SF-268": {"test_system": "SF-268"}, "SNB-75": {"test_system": "SNB-75"}, "MCF7": {"test_system": "MCF7"}, "OVCAR-8": {"test_system": "OVCAR-8"}, "RPMI-8226": {"test_system": "RPMI-8226"}, "IGROV-1": {"test_system": "IGROV-1"}, "M14": {"test_system": "M14"}, "SF-295": {"test_system": "SF-295"}, "HCT-15": {"test_system": "HCT-15"}, "SR": {"test_system": "SR"}, "HOP-62": {"test_system": "HOP-62"}, "U-251": {"test_system": "U-251"}, "HT-29": {"test_system": "HT-29"}, "SW-620": {"test_system": "SW-620"}, "COLO 205": {"test_system": "COLO 205"}, "NCI/ADR-RES": {"test_system": "NCI/ADR-RES"}, "MDA-MB-435": {"test_system": "MDA-MB-435"}, "A549": {"test_system": "A549"}, "SK-MEL-28": {"test_system": "SK-MEL-28"}, "K562": {"test_system": "K562"}, "MDA-MB-231": {"test_system": "MDA-MB-231"}, "SK-MEL-2": {"test_system": "SK-MEL-2"}, "SK-OV-3": {"test_system": "SK-OV-3"}, "HOP-92": {"test_system": "HOP-92"}, "T47D": {"test_system": "T47D"}, "HCT-116": {"test_system": "HCT-116"}, "NCI-H522": {"test_system": "NCI-H522"}, "OVCAR-5": {"test_system": "OVCAR-5"}, "EKVX": {"test_system": "EKVX"}, "UACC-62": {"test_system": "UACC-62"}, "A498": {"test_system": "A498"}, "UO-31": {"test_system": "UO-31"}, "DU-145": {"test_system": "DU-145"}, "RXF 393": {"test_system": "RXF 393"}, "SK-MEL-5": {"test_system": "SK-MEL-5"}, "MOLT-4": {"test_system": "MOLT-4"}, "CAKI-1": {"test_system": "CAKI-1"}, "HCC 2998": {"test_system": "HCC 2998"}, "BT-549": {"test_system": "BT-549"}, "LOX IMVI": {"test_system": "LOX IMVI"}, "KM12": {"test_system": "KM12"}, "CCRF-CEM": {"test_system": "CCRF-CEM"}, "Malme-3M": {"test_system": "Malme-3M"}, "OVCAR-4": {"test_system": "OVCAR-4"}, "UACC-257": {"test_system": "UACC-257"}, "OVCAR-3": {"test_system": "OVCAR-3"}, "TK-10": {"test_system": "TK-10"}, "SNB-19": {"test_system": "SNB-19"}, "DMS-273": {"test_system": "DMS-273"}}, "note": "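96-well plates; 48 h exposure; 5 concentrations. Endpoints by linear interpolation between flanking doses. Not reached: highest tested concentration assigned. The concentration for 50% growth inhibition is given as GI50.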 Active and inactive are the calls of the source. No stated cut-off is given here; in the data, active = GI50 up to about 1.1 µM and inactive = higher.", "data": [{"smiles": "COC(=O)c1ccc(C)cc1CC1Cc2ccc(C)cc2C1=O", "note": "(stereo unspecified)", "values": [{"measurement": "GI50", "setting": "NCI-H226", "result": "6.04 µM (inactive)"}, {"measurement": "GI50", "setting": "NCI-H460", "result": "6.61 µM (inactive)"}, {"measurement": "GI50", "setting": "ACHN", "result": "22 µM (inactive)"}, {"measurement": "GI50", "setting": "786-0", "result": "13.7 µM (inactive)"}, {"measurement": "GI50", "setting": "SF-539", "result": "5.6 µM (inactive)"}, {"measurement": "GI50", "setting": "PC-3", "result": "12.1 µM (inactive)"}, {"measurement": "GI50", "setting": "HL-60", "result": "3.47 µM (inactive)"}, {"measurement": "GI50", "setting": "MDA-N", "result": "1.75 µM (inactive)"}, {"measurement": "GI50", "setting": "Hs-578T", "result": "15 µM (inactive)"}, {"measurement": "GI50", "setting": "NCI-H23", "result": "15.7 µM (inactive)"}, {"measurement": "GI50", "setting": "SN12C", "result": "12.2 µM (inactive)"}, {"measurement": "GI50", "setting": "SF-268", "result": "12.2 µM (inactive)"}, {"measurement": "GI50", "setting": "SNB-75", "result": "5.69 µM (inactive)"}, {"measurement": "GI50", "setting": "MCF7", "result": "4.39 µM (inactive)"}, {"measurement": "GI50", "setting": "OVCAR-8", "result": "12.2 µM (inactive)"}, {"measurement": "GI50", "setting": "RPMI-8226", "result": "7.91 µM (inactive)"}, {"measurement": "GI50", "setting": "IGROV-1", "result": "7.87 µM (inactive)"}, {"measurement": "GI50", "setting": "M14", "result": "5.7 µM (inactive)"}, {"measurement": "GI50", "setting": "SF-295", "result": "10.7 µM (inactive)"}, {"measurement": "GI50", "setting": "HCT-15", "result": 3.24, "unit": "µM"}, {"measurement": "GI50", "setting": "SR", "result": "3.05 µM (inactive)"}, {"measurement": "GI50", "setting": "HOP-62", "result": "22 µM (inactive)"}, {"measurement": "GI50", "setting": "U-251", "result": "4.07 µM (inactive)"}, {"measurement": "GI50", "setting": "HT-29", "result": "3.47 µM (inactive)"}, {"measurement": "GI50", "setting": "SW-620", "result": "4.17 µM (inactive)"}, {"measurement": "GI50", "setting": "COLO 205", "result": "4.54 µM (inactive)"}, {"measurement": "GI50", "setting": "NCI/ADR-RES", "result": "2.59 µM (inactive)"}, {"measurement": "GI50", "setting": "MDA-MB-435", "result": "1.63 µM (inactive)"}, {"measurement": "GI50", "setting": "A549", "result": "11 µM (inactive)"}, {"measurement": "GI50", "setting": "SK-MEL-28", "result": "8.43 µM (inactive)"}, {"measurement": "GI50", "setting": "K562", "result": "3.21 µM (inactive)"}, {"measurement": "GI50", "setting": "MDA-MB-231", "result": "14.9 µM (inactive)"}, {"measurement": "GI50", "setting": "SK-MEL-2", "result": "11.9 µM (inactive)"}, {"measurement": "GI50", "setting": "SK-OV-3", "result": "9.08 µM (inactive)"}, {"measurement": "GI50", "setting": "HOP-92", "result": "23 µM (inactive)"}, {"measurement": "GI50", "setting": "T47D", "result": "5.55 µM (inactive)"}, {"measurement": "GI50", "setting": "HCT-116", "result": "5.15 µM (inactive)"}, {"measurement": "GI50", "setting": "NCI-H522", "result": "1.47 µM (inactive)"}, {"measurement": "GI50", "setting": "OVCAR-5", "result": "19.5 µM (inactive)"}, {"measurement": "GI50", "setting": "EKVX", "result": "8.04 µM (inactive)"}, {"measurement": "GI50", "setting": "UACC-62", "result": "9.53 µM (inactive)"}, {"measurement": "GI50", "setting": "A498", "result": "1.53 µM (inactive)"}, {"measurement": "GI50", "setting": "UO-31", "result": "19.9 µM (inactive)"}, {"measurement": "GI50", "setting": "DU-145", "result": "22.9 µM (inactive)"}, {"measurement": "GI50", "setting": "RXF 393", "result": "10.1 µM (inactive)"}, {"measurement": "GI50", "setting": "SK-MEL-5", "result": "7.29 µM (inactive)"}, {"measurement": "GI50", "setting": "MOLT-4", "result": "5.68 µM (inactive)"}, {"measurement": "GI50", "setting": "CAKI-1", "result": "7.13 µM (inactive)"}, {"measurement": "GI50", "setting": "HCC 2998", "result": "10.1 µM (inactive)"}, {"measurement": "GI50", "setting": "BT-549", "result": "12.2 µM (inactive)"}, {"measurement": "GI50", "setting": "LOX IMVI", "result": "5.25 µM (inactive)"}, {"measurement": "GI50", "setting": "KM12", "result": "4.27 µM (inactive)"}, {"measurement": "GI50", "setting": "CCRF-CEM", "result": "9.91 µM (inactive)"}, {"measurement": "GI50", "setting": "Malme-3M", "result": "5.24 µM (inactive)"}, {"measurement": "GI50", "setting": "OVCAR-4", "result": "16.1 µM (inactive)"}, {"measurement": "GI50", "setting": "UACC-257", "result": "13.2 µM (inactive)"}, {"measurement": "GI50", "setting": "OVCAR-3", "result": "6.17 µM (inactive)"}, {"measurement": "GI50", "setting": "TK-10", "result": "13 µM (inactive)"}, {"measurement": "GI50", "setting": "SNB-19", "result": "6.24 µM (inactive)"}]}, {"smiles": "COc1ccc(N[C@@H]2c3cc4c(cc3C(c3cc(OC)c(O)c(OC)c3)[C@H]3C(=O)OCC32)OCO4)cc1OC", "note": "(stereo partly specified)", "values": [{"measurement": "GI50", "setting": "NCI-H23", "result": "0.297 µM (active)"}, {"measurement": "GI50", "setting": "HCT-15", "result": "> 100", "unit": "µM"}, {"measurement": "GI50", "setting": "NCI/ADR-RES", "result": "> 19.9 µM (inactive)"}, {"measurement": "GI50", "setting": "SK-MEL-28", "result": "> 19.9 µM (inactive)"}, {"measurement": "GI50", "setting": "HOP-92", "result": "> 100 µM (inactive)"}, {"measurement": "GI50", "setting": "DMS-273", "result": "> 100 µM (inactive)"}, {"measurement": "GI50", "setting": "OVCAR-5", "result": "> 19.9 µM (inactive)"}, {"measurement": "GI50", "setting": "EKVX", "result": "> 32.7 µM (inactive)"}, {"measurement": "GI50", "setting": "A498", "result": "> 100 µM (inactive)"}, {"measurement": "GI50", "setting": "LOX IMVI", "result": "> 100 µM (inactive)"}, {"measurement": "GI50", "setting": "OVCAR-4", "result": "20.3 µM (inactive)"}, {"measurement": "GI50", "setting": "UACC-257", "result": "4.21 µM (inactive)"}]}]}
